Test results as given in publication PMC7998669, “7-(2-Anilinopyrimidin-4-yl)-1-benzazepin-2-ones Designed by a “Cut and Glue” Strategy Are Dual Aurora A/VEGF-R Kinase Inhibitors” (Molecules, 2021).

Columns and labels:
Experiment in all cases: NCI cancer cell line screen (sulforhodamin B)
Format in all cases: cell-based
CCRF-CEM = details: Homo sapiens, Leukemia, 48 h, read-out: log10 GI50 (converted)
Description: (§1) The new dual Aurora A/VEGF-R inhibitors 2e and 2n were selected by the National Cancer Institute for screening in its broad cancer cell line panel. The NCI in vitro assay is performed by incubation of cells with test compounds for 48 h and subsequent cell fixation with trichloroacetic acid. The pink dye sulforhodamin B is added, which binds to the proteins of the fixed cells. After washing and solubilizing the bound stain, the optical density is measured spectrophotometrically to determine the relative proliferation of treated and untreated cells.
(§2) Simultaneous inhibition of the Aurora A kinase and the VEGF-R2/3 receptor kinases may represent an interesting dual activity for the treatment of cancer. The National Cancer Institute selected the compounds 2e and 2n as representatives with particularly high inhibitory activity on the above kinases for testing in the IVCLS (in vitro cell line screening). In this screening, compounds are tested for antiproliferative activity on about 60 in vitro cultivated tumor cell lines. Based on this very broad screening on cell lines from nine tumor entities the general antiproliferative potency of compounds is determined. In addition, the bioinformatic tool COMPARE allowed one to draw conclusions on the molecular target of the compounds from the activity patterns on the different cell lines. Similar molecular mechanisms of action of two compounds are assumed if a Pearson correlation coefficient (PCC) of > 0.6 is calculated by COMPARE [52, 53]. […] The selectivity profile of the two compounds is not very pronounced given the overall very similar proliferation inhibition values across all cell lines. A COMPARE analysis determined a PCC = 0.61 for the patterns of test compounds 2e and 2n, which is consistent with an analogous mechanism of action. However, whether this mechanism is actually based on the inhibition of the inhibited Aurora kinases and VEGF receptor kinases cannot be deduced from these profiles.

BT-549 = details: Homo sapiens; BT-549, Breast; 48 h; read-out: log10 GI50 (converted)
Description: as §1, §2

OVCAR-4 = details: Homo sapiens; OVCAR-4, Ovarian; 48 h; read-out: log10 GI50 (converted)
Description: as §1, §2

UACC-257 = details: Homo sapiens; UACC-257, Melanoma; 48 h; read-out: log10 GI50 (converted)
Description: as §1, §2

SK-MEL-2 = details: Homo sapiens; SK-MEL-2, Melanoma; 48 h; read-out: log10 GI50 (converted)
Description: as §1, §2

NCI/ADR-RES = details: Homo sapiens, Ovarian, 48 h, read-out: log10 GI50 (converted)
Description: as §1, §2

HS 578T = details: Homo sapiens, Breast, 48 h, read-out: log10 GI50 (converted)
Description: as §1, §2

SR = details: Homo sapiens, Leukemia, 48 h, read-out: log10 GI50 (converted)
Description: as §1, §2

LOX IMVI = details: Homo sapiens, Melanoma, 48 h, read-out: log10 GI50 (converted)
Description: as §1, §2

HOP-62 = details: Homo sapiens; HOP-62, NSCL; 48 h; read-out: log10 GI50 (converted)
Description: as §1, §2

MCF7 = details: Homo sapiens; MCF7, Breast; 48 h; read-out: log10 GI50 (converted)
Description: as §1, §2

SF-268 = details: Homo sapiens; SF-268, CNS; 48 h; read-out: log10 GI50 (converted)
Description: as §1, §2

CAKl-1 = details: Homo sapiens; CAKl-1, Renal; 48 h; read-out: log10 GI50 (converted)
Description: as §1, §2

SN12C = details: Homo sapiens, Renal, 48 h, read-out: log10 GI50 (converted)
Description: as §1, §2

MDA-MB-231/ATCC = details: Homo sapiens, Breast, 48 h, read-out: log10 GI50 (converted)
Description: as §1, §2

A549/ATCC = details: Homo sapiens, NSCL, 48 h, read-out: log10 GI50 (converted)
Description: as §1, §2

T-47D = details: Homo sapiens, T47D, Breast, 48 h, read-out: log10 GI50 (converted)
Description: as §1, §2

TK-10 = details: Homo sapiens; TK-10, Renal; 48 h; read-out: log10 GI50 (converted)
Description: as §1, §2

NCI-H23 = details: Homo sapiens; NCI-H23, NSCL; 48 h; read-out: log10 GI50 (converted)
Description: as §1, §2

HCT-15 = details: Homo sapiens; HCT-15, Colon; 48 h; read-out: log10 GI50 (converted)
Description: as §1, §2

HCC-2998 = details: Homo sapiens; HCC-2998, Colon; 48 h; read-out: log10 GI50 (converted)
Description: as §1, §2

UACC-62 = details: Homo sapiens; UACC-62, Melanoma; 48 h; read-out: log10 GI50 (converted)
Description: as §1, §2

U251 = details: Homo sapiens, U-251; U251, CNS; 48 h; read-out: log10 GI50 (converted)
Description: as §1, §2

SW-620 = details: Homo sapiens; SW-620, Colon; 48 h; read-out: log10 GI50 (converted)
Description: as §1, §2

RPMl-8226 = details: Homo sapiens; RPMl-8226, Leukemia; 48 h; read-out: log10 GI50 (converted)
Description: as §1, §2

U0-31 = details: Homo sapiens; U0-31, Renal; 48 h; read-out: log10 GI50 (converted)
Description: as §1, §2

HL-60(TB) = details: Homo sapiens, Leukemia, 48 h, read-out: log10 GI50 (converted)
Description: as §1, §2

OVCAR-5 = details: Homo sapiens; OVCAR-5, Ovarian; 48 h; read-out: log10 GI50 (converted)
Description: as §1, §2

Row | SMILES | GI50 (CCRF-CEM) | GI50 (BT-549) | GI50 (OVCAR-4) | GI50 (UACC-257) | GI50 (SK-MEL-2) | GI50 (NCI/ADR-RES) | GI50 (HS 578T) | GI50 (SR) | GI50 (LOX IMVI) | GI50 (HOP-62) | GI50 (MCF7) | GI50 (SF-268) | GI50 (CAKl-1) | GI50 (SN12C) | GI50 (MDA-MB-231/ATCC) | GI50 (A549/ATCC) | GI50 (T-47D) | GI50 (TK-10) | GI50 (NCI-H23) | GI50 (HCT-15) | other results
1 | O=C1CCCc2cc(-c3ccnc(Nc4ccc(O)cc4)n3)ccc2N1 [Compound 2e, 7-[2-(4-Hydroxyanilino)pyrimidin-4-yl]-1,3,4,5-tetrahydro-2H-1-benzazepin-2-one] | 2.51 µM | 5.13 µM | 5.62 µM | 4.17 µM | 2.09 µM | > 100 µM | 4.9 µM | 1.32 µM | 3.39 µM | 11 µM | 4.27 µM | 4.37 µM | 4.17 µM | 6.17 µM | > 100 µM | 4.47 µM | 1.55 µM | 3.8 µM | > 100 µM | 3.24 µM | GI50 (HCC-2998): 8.71 µM; GI50 (UACC-62): 9.12 µM; GI50 (U251): 6.03 µM; GI50 (SW-620): 4.79 µM; GI50 (RPMl-8226): 3.24 µM; GI50 (U0-31): 1.74 µM; GI50 (HL-60(TB)): 1.38 µM; GI50 (OVCAR-5): 6.46 µM
2 | COc1ccc(Nc2nccc(-c3ccc4c(c3)CCCC(=O)N4)n2)cc1O [Compound 2n, 7-[2-(3-Hydroxy-4-methoxyanilino)pyrimidin-4-yl]-1,3,4,5-tetrahydro-2H-1-benzazepin-2-one] | 3.89 µM | 5.62 µM | 7.59 µM | 14.8 µM | 9.12 µM | 14.1 µM | 2.14 µM | 3.16 µM | 5.5 µM | 8.13 µM | 5.13 µM | 7.41 µM | 5.62 µM | 5.75 µM | > 100 µM | 7.94 µM | 4.07 µM | 23.4 µM | 11.7 µM | 4.57 µM | GI50 (HCC-2998): 22.9 µM; GI50 (UACC-62): 9.33 µM; GI50 (U251): 10.2 µM; GI50 (SW-620): 4.47 µM; GI50 (RPMl-8226): 5.25 µM; GI50 (U0-31): 3.02 µM; GI50 (HL-60(TB)): 3.16 µM; GI50 (OVCAR-5): 8.71 µM
